Consider 14 compounds from article PMC6273432, “Novel Selective Butyrylcholinesterase Inhibitors Incorporating Antioxidant Functionalities as Potential Bimodal Therapeutics for Alzheimer’s Disease” (Molecules, 2016).

As a reminder, the viability is a per cent measure of how many cells are alive, often set against a control.

Data set [1] addresses T1, BuChE purified from human plasma (Homo sapiens, UniProt P06276).
T1 construct: BuChE purified from human plasma; from tissue; host or cells: human plasma
The data set is described as follows: Ellman assay, BuChE inhibition. In kind it is biochemical. Conditions: for Selectivity: IC50 AChE/IC50 BuChE, 100 µM used for AChE where % inhibition at 100 µM was <50%; for IC50: n = 3. The protocol: (§1) Inhibitory activities of the isosorbide-2-carbamates bearing a lipoate ester (7a–d), a ferulate ester (8a–d) ester or 5-unsubstituted compounds (6a–d) was measured using the standard Ellman spectrophotometric method using AChE from electric eel or BuChE purified from human plasma with acetylthiocholine or butyrylthiocholine as appropriate (Table 1). […] These values are in the potency range of clinically used cholinesterase inhibitors. […] In most cases, it was not possible to achieve a maximal inhibition of AChE because the solubility threshold was lower than the concentration required for maximal inhibition. In previous studies, we noticed that phenyl carbamates of isosorbide are relatively weak inhibitors of BuChE compared with the benzyl and alkyl carbamates, but that AChE is relatively tolerant of isosorbide phenyl carbamates. We published a paper showing that isosorbide-2,5-diaryl esters are moderately potent substrate-inhibitors of AChE [25]. […] The effect of (appropriate) 5-ester substitution in the series of isosorbide compounds already published is to increase potency by promoting affinity in the pre-carbamylation state, reducing the pseudo Michaelis constant for the carbamate substrate (referred to as Kc in carbamylation literature). When the intrinsic affinity of the substrate carbamate is higher, there is a relatively greater proportion of the unimolecular E. carbamate complex. In the present case, the anti-oxidant ester functionality directly contributes to potency by increasing substrate affinity. […] Indeed, ester hydrolysis at the isosorbide C-5, which is slow, would produce the ferulic acid or lipoic acid byproduct.
(§2) Cholinesterase activity was measured using the Ellman spectrophotometric method. HuBuChE activity was measured in replicate samples using a 96-well plate reader. The total volume of test solution in each well was 250 μL. This consisted of 25 μL of plasma solution, 150 μL of phosphate buffer pH 8.0, 25 μL of DTNB solution (0.5 mM), and 25 μL of acetonitrile:distilled water (1:1). The 96-well plate was incubated for 30 min before 25 μL of butyrylthiocholine iodide (BTCI) solution (0.5 mM) was added, and the reaction was measured at 405 nm over 5 min using an Anthos bt2 plate reader. For the determination of AChE activity, 25 μL of electric eel AChE solution and 25 μL of acetylthiocholine iodide (ATCI) solution were used instead of the plasma solution and BTCI solution. For determination of enzyme inhibition, 25 μL of an inhibitor solution was added to the test solution instead of the acetonitrile:water (1:1) solution. Inhibitors were added 30 min before determination of remaining enzyme activity. IC50 values were calculated using GraphPad Prism 4.02 software (GraphPad Software Inc., La Jolla, CA, USA).
For orientation: DTNB colorimetry detects thiols as they appear.

The target of a further data set is T2, AChE from electric eel (Electrophorus electricus, UniProt O42275).
T2 construct: AChE from electric eel; from tissue
Kind of data set: Ellman assay, AChE inhibition. In kind it is biochemical. Conditions: for IC50: inhibitor added 30 min before; for inhibition at 100 µM: read-out: AChE %I at 100 μM. On the procedure:
as §1, §2

The subject of data set [2] is HT-22 murine hippocampal cell line. The data set is described as follows: cells. In kind it is cell-based. Conditions: glutamate 5 mM. The protocol: (§3) The neuroprotective properties of the compounds were assessed using the HT-22 murine hippocampal cell line. This is an immortalized cell line which has become widely used in recent years to study oxidative stress induced neuronal cell death. The cell line lacks ionotropic glutamate receptors but is sensitive to glutamate cytotoxicity via non-receptor mediated pathway(s) that are to a significant extent propagated by reactive oxygen species. The cell line appeared to be a good cellular model for measuring an anti-oxidant mediated neuroprotective in vitro effect of the compounds [26, 27, 28].
(§4) Test compounds in DMSO solution (0.1%) were added to HT-22 cell culture for (24 h), using four repeats in three independent experiments. […] Lipoic acid and ferulic acid were also non-toxic in the same concentration range. Next, the neuronal cell culture was treated with glutamate (5 mM) which caused about 90% cell death as reflected in the MTT assay. Quercetin served as positive control and caused rescue of cell death to around 80% cell viability at 25 µM. Cells were co-treated with test compounds 7a–d and 8a–d at 1, 5, 10 and 25 µM in four repeats and three independent experiments. Lipoic and ferulic acid were tested in parallel experiments in the same concentration range. Lipoic acid was active in the range 10–25 µM but ferulic acid was not active (data not shown). […] The reasons for this unexpected variation in efficacy is not clear but may be due to (intra)cellular access.
This test was performed as reported before. Briefly, HT-22 cells were seeded in 96-well plates at a density of 5 × 10^3 per well and cultured for 24 h. Subsequently, cells were incubated for another 24 h either with medium or test compounds with potential cytoprotective activity either in the absence (to test for toxic effects) or the presence (to test for the protective potential against glutamate induced oxidative stress) of 5 mM glutamate. MTT solution (4 mg/mL in PBS) was diluted 1:10 with medium and the mixture was added to the wells after removal of the previous medium. The plates were then incubated for another 3 h. Then, the supernatant was removed and 100 µL of lysis buffer (10% SDS, pH 4.1) were added to the wells. Absorbance at 560 nm was determined on the next day using a multiwell plate photometer (Spectra Fluor Plus, Tecan, Crailsheim, Germany). The results of these cell viability assays were expressed as percentages relative to untreated control cells. All compounds were dissolved in DMSO and diluted with fresh medium, with the DMSO concentration always below 0.1% (v/v).
Data of all MTT tests were expressed as means ± SD of at least three independent experiments (in quadruplicates). Data were subjected to one-way ANOVA followed by Dunnett’s multiple comparison post-test using GraphPad Prism 5 Software. (Levels of significance ** p < 0.01; *** p < 0.001).

A short description of data set [3]: Oxygen radical absorbance capacity (ORAC) assay. In kind it is physicochemical. Conditions: for ORAC antioxidant capacity: TE = 1 equals trolox. The protocol: The antioxidant capacity of 7d and 8a was assessed directly using the oxygen radical absorbance capacity (ORAC) assay, in which the physicochemical ability of the test compounds to scavenge radicals and quench fluorescein […] is quantified and related to so-called trolox equivalents (TE = 1 represents the antioxidant equivalence to trolox, a water-soluble Vitamin E derivative). Compound 7d was 0.163 ± 0.146, 8a, 0.635 ± 0.020, thus showing a very weak ORAC for the lipoate and a weak, but significant, effect for the ferulic acid derivative. The lack of activity of the lipoate in the non-cellular ORAC assay is not surprising as its anti-oxidant effects are mainly related to cellular or mitochondria related processes.
Compounds were assessed for antioxidant capacity using the standard ORAC assay performed as described previously.

Data set [4] has as its system HT-22 murine hippocampal cell line. In kind it is cell-based. Conditions: 24 h, no glutamate; for toxicity / reduction in cell viability, compound alone: 1–25 µM. On the procedure:
as §3, §4
This test was performed as reported before. Briefly, HT-22 cells were seeded in 96-well plates at a density of 5 × 10^3 per well and cultured for 24 h. […] Absorbance at 560 nm was determined on the next day using a multiwell plate photometer (Spectra Fluor Plus, Tecan, Crailsheim, Germany). The results of these cell viability assays were expressed as percentages relative to untreated control cells. […]

The mark [5] stands for this setting: inhibitor added 30 min before, read-out: BChE IC50.
Where [6] appears, read: read-out: BChE pIC50 ± SEM (converted).

The structures appear in SMILES notation. Where two headings read alike, the source gives them in different places.

T2 sequence (O42275 24-633): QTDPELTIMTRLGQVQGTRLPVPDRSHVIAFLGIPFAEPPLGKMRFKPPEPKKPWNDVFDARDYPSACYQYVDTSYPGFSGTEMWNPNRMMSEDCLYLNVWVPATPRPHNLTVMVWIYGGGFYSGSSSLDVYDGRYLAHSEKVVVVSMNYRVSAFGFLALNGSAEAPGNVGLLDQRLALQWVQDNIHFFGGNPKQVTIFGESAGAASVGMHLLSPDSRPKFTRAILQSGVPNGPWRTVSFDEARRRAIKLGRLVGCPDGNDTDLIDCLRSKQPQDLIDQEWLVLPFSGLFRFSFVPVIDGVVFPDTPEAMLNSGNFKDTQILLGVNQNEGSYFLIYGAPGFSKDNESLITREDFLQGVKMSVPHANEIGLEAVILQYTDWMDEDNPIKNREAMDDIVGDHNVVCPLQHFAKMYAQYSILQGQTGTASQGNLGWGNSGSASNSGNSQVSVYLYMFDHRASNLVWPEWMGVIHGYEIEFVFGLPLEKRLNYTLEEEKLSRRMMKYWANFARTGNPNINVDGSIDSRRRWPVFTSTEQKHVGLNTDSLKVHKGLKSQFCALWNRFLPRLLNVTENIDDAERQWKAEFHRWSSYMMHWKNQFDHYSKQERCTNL
T1 sequence (P06276 29-602): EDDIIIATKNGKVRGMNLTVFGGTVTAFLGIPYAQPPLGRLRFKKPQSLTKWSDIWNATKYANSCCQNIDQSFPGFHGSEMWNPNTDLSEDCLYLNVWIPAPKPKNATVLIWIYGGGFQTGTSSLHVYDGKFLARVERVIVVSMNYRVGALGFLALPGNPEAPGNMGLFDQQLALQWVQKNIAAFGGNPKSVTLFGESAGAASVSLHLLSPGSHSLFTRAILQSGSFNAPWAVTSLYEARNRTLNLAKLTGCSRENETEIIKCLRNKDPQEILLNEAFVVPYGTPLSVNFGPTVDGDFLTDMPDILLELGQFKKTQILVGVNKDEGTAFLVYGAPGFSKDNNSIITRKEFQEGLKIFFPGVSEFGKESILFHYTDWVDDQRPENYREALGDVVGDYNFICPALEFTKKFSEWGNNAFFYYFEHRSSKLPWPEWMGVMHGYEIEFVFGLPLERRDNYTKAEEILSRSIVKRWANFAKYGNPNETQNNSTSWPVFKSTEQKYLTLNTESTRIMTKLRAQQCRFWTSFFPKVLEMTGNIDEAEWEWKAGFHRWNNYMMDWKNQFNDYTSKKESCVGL

In the case of `O=C(NCc1ccccc1)O[C@H]1CO[C@H]2[C@@H]1OC[C@H]2O` [Compound 6a, Isosorbide-2-benzylcarbamate], the Selectivity in data set [1] is on record as 1.45. The IC50 came out at 25.8 µM in data set [1] (setting [5]) and 37.5 ± 7.4 µM against AChE from electric eel (n = 3).
`O=C(Nc1ccccc1)O[C@H]1CO[C@H]2[C@@H]1OC[C@H]2O` [Compound 6b, Isosorbide-2-phenylcarbamate]: the IC50 in data set [1] (setting [5]) is more than 100 µM. The inhibition at 100 µM at AChE from electric eel (100 μM, n = 3) is 25.3%.
Consider `CCCCNC(=O)O[C@H]1CO[C@H]2[C@@H]1OC[C@H]2O` [Compound 6c, Isosorbide-2-butylcarbamate], for which the results for the IC50 in data set [1] (setting [5]) and in data set [1] (setting [6]) were 28 µM and 28.2 µM, respectively. At AChE from electric eel, the inhibition at 100 µM came out at 30%.
Turning to `CCNC(=O)O[C@H]1CO[C@H]2[C@@H]1OC[C@H]2O` [Compound 6d, Isosorbide-2-ethylcarbamate], the IC50 in data set [1] (setting [5]) is 46.9 µM; in data set [1] (setting [6]) it was 46.8 µM. Also, on AChE from electric eel (100 μM, n = 3), the inhibition at 100 µM stood at 22%.
Take `O=C(CCCCC1CCSS1)O[C@@H]1CO[C@H]2[C@@H]1OC[C@@H]2OC(=O)Nc1ccccc1` (stereo partly drawn) [Compound 7b, Isosorbide-2-phenylcarbamate-5-lipoic acid ester]: the “neuroprotective effect” value in data set [2] (1–25 µM) was “neuroprotective effect could not be observed”. Further, the Selectivity in data set [1] is more than 7.5. The IC50 in data set [1] (setting [5]) is 13.3 µM; in data set [1] (setting [6]), 13.2 µM. Further, the inhibition at 100 µM at AChE from electric eel (100 μM, n = 3) is 18.8%.
Take `CCCCNC(=O)O[C@H]1CO[C@H]2[C@@H]1OC[C@H]2OC(=O)CCCCC1CCSS1` (stereo partly drawn) [Compound 7c, Isosorbide-2-butylcarbamate-5-lipoic acid ester]: in data set [2] (1–25 µM), the “neuroprotective effect” value is “showed some effects”. The IC50 in data set [1] (setting [5]) was 0.17 µM; in data set [1] (setting [6]), 0.209 µM. Also, the inhibition at 100 µM at AChE from electric eel (100 μM, n = 3) came out at 68.7%.
For `CCNC(=O)O[C@H]1CO[C@H]2[C@@H]1OC[C@H]2OC(=O)CCCCC1CCSS1` (stereo partly drawn) [Compound 7d, Isosorbide-2-ethylcarbamate-5-lipoic acid ester], in data set [3], the “ORAC antioxidant effect” value is listed as “not active” and the ORAC antioxidant capacity is 0.163 ± 0.146 Trolox Equivalent. Moreover, the “neuroprotective effect” value in data set [2] (1–25 µM) was “showed some effects”. Moreover, the IC50 in data set [1] (setting [5]) worked out at 5.71 µM. In addition, the IC50 in data set [1] (setting [6]) is 5.75 µM. For the same compound, at AChE from electric eel (100 μM, n = 3), the inhibition at 100 µM turned out to be 84.1%.
In data set [3], `COc1cc(/C=C/C(=O)O[C@@H]2CO[C@H]3[C@@H]2OC[C@@H]3OC(=O)NCc2ccccc2)ccc1O` [Compound 8a, Isosorbide-2-benzylcarbanate-5-ferulate] registered an ORAC antioxidant capacity of 0.635 ± 0.020 Trolox Equivalent. This compound also yielded a Selectivity in data set [1] of more than 55. Moreover, the IC50 is 1.82 µM in data set [1] (setting [5]) and 1.62 µM in data set [1] (setting [6]). Also, the inhibition at 100 µM at AChE from electric eel (100 μM, n = 3) is 25.2%.
As to `COc1cc(/C=C/C(=O)O[C@@H]2CO[C@H]3[C@@H]2OC[C@@H]3OC(=O)Nc2ccccc2)ccc1O` [Compound 8b, Isosorbide-2-phenylcarbanate-5-ferulate], the Selectivity in data set [1] was found to be 0.92. The values for the IC50 (in data set [1] (setting [5]); in data set [1] (setting [6]); against AChE from electric eel (n = 3)) were 29.2 µM, 26.3 µM and 27.1 ± 11.3 µM, respectively.
Turning to `CCCCNC(=O)O[C@H]1CO[C@H]2[C@@H]1OC[C@H]2OC(=O)/C=C/c1ccc(O)c(OC)c1` [Compound 8c, Isosorbide-2-butylcarbanate-5-ferulate], the IC50 in data set [1] (setting [5]) is 0.43 µM; in data set [1] (setting [6]) it was 0.389 µM.
Take `CCNC(=O)O[C@H]1CO[C@H]2[C@@H]1OC[C@H]2OC(=O)/C=C/c1ccc(O)c(OC)c1` [Compound 8d, Isosorbide-2-ethylcarbanate-5-ferulate]: in data set [4] (25 µM), the “reduction in cell viability, compound alone” value is “significant”. Further, the IC50 in data set [1] (setting [5]) was 95 µM; in data set [1] (setting [6]), 95.5 µM.
`COc1cc(/C=C/C(=O)O)ccc1O` [Ferulic acid, ferulic acid, reference compound]: the “toxicity / reduction in cell viability, compound alone” value in data set [4] is listed as “non-toxic”. In data set [2] (1–25 µM), the “neuroprotective effect” value is “not active”.
Regarding `O=C(O)CCCCC1CCSS1` (stereo not drawn) [Lipoic acid, lipoic acid, reference compound], the “toxicity / reduction in cell viability, compound alone” value in data set [4] is reported as “non-toxic”. The “neuroprotective effect” value in data set [2] (compound 5 µM) is recorded as “not effective”.
Take `O=c1c(O)c(-c2ccc(O)c(O)c2)oc2cc(O)cc(O)c12` [Quercetin, quercetin, reference compound]: in data set [2] (Mus musculus, HT-22, compound 25 µM, read-out: cell viability after rescue from glutamate), the viability at 25 µM is approximately 80%.
